Source: US12029682B2, “Spray ejector mechanisms and devices providing charge isolation and controllable droplet charge, and low dosage volume ophthalmic administration” (EYENOVIA, INC., priority 2012, dated 2024)

Assays:
[1] = Pharmacokinetic study: acid of latanoprost in aqueous humor (AH) by HPLC; type: in vivo, beagle dog; conditions: delivered by the spray ejector device
Description: Eight normal laboratory beagles were chosen for this study. Conditions for inclusion included normal overall health and normal ophthalmic state as determined by gross eye exam by a boarded veterinary ophthalmologist. Pre- and post-dosing mass deposition calibrations of the spray device were consistently within 10% of the intended dose of 9 μl. A 9.0 μl dose of a commercially available prostaglandin pro-drug, latanoprost, was instilled topically in two eyes of each of eight normotensive beagle dogs using the spray ejector device. Levels of the acid of latanoprost were measured in aqueous humor (AH) obtained by aqueocentesis over a 7-hour period each day for 5 days. This protocol was repeated for latanoprost 0.005% delivered by eyedropper (average dose 26 μl).
All dogs received a washout and acclimation period of two weeks. In Week 1, all animals were assigned to a group, with two animals each in Groups 1, 2, 4, and 7. […] IOP and PD were measured while the topical anesthetic took effect. […]
Week 3 followed the Week 1 protocol, with the substitution of eyedropper-delivered 0.005% latanoprost at an average dose of 26 μl at time 0. […] All AH samples were frozen to −80° C., stored overnight on dry ice, and then analyzed for the acid of latanoprost using a latanoprost-specific HPLC methodology. […]

[2] = system: glaucomatous beagles; parameters: species or system beagle dog; conditions: dog, in vivo
Description: All animals are rested a minimum of one week before starting the trials. Intraocular pressure (IOP), pupil diameter (PD), and heart rate (HR) are measured 6 times (at 0, 0:30, 0:45, 1, 2, 7 hrs) daily for five days, for initial baseline levels (Study days 1-5). The basic measurement protocol is followed and performed by the operator. PD is measured via Jameson Caliper (mm horizontally). IOP is measured with a TonoVet instrument with clean probe (iCare). HR is monitored via palpation of the femoral vessels. After two rest days, one eye is randomly assigned to receive the drug delivered via the ejector device and the contralateral eye is given traditional latanoprost from an eye dropper container.
All animals were rested a minimum of one week before starting the trials. Intraocular pressure (IOP), pupil diameter (PD), and heart rate (HR) were measured daily at time 0, 12, 13, 14, 16, and 19 hours for five days starting at approximately 2100 h to establish initial baseline levels (study days 1-5). […] PD was measured via Jameson Caliper (mm horizontally). IOP was measured using a TonoVet instrument with clean probe (iCare). HR was monitored via palpation of the femoral vessels. […]
Following a 7 day rest period, the eye choice was reversed. […] A veterinary ophthalmologist evaluated each test subject before and after the study for evidence of ocular side effects. […]

Row | Structure (SMILES) | absorption rate vs eyedropper-delivered drug in higher doses [1] | changes in HR [2]
1 | CC(C)OC(=O)CCC/C=C\C[C@@H]1[C@@H](CC[C@@H](O)CCc2ccccc2)[C@H](O)C[C@@H]1O [latanoprost] | three-fold | –
2 | CC(C)OC(=O)CCC/C=C\C[C@@H]1[C@@H](/C=C/[C@@H](O)COc2cccc(C(F)(F)F)c2)[C@H](O)C[C@@H]1O [travoprost] | – | no changes in HR
